The values below come from patent US5908841A, “5,11-dihydro-6H-dipyrido[3,2-b:2',3'-e]azepine-6-ones and their use in the prevention of treatment of HIV infection” (priority 1998, dated 1999).

This experiment has as its target T1, HIV-1 reverse transcriptase, wild type (WT) (Human immunodeficiency virus type 1 group M subtype B, UniProt P03367).
T1 construct: Reverse transcriptase enzyme from the LAV strain of Human Immunodeficiency Virus (HIV-1); made in house; host or cells: Escherichia coli JM109 (clone pBRTprtl+ in vector pIBI21)
The experiment in a line: Reverse Transcriptase Assay, wild type (WT) enzyme (RNA-dependent DNA polymerase activity; poly r(C)/oligo d(G), 3H-dGTP). The experiment is classed as biochemical, HIV-1 (LAV strain). Conditions: wild type (WT) RT. An excerpt:
Utilizing the Reverse Transcriptase (RT) Assay described below, compounds can be tested for their ability to inhibit the RNA-dependent DNA polymerase activity of HIV-1 RT. Certain specific compounds described in the Examples which appear below, were so tested.
Among the enzymes for which Human Immunodeficiency Virus (HIV-1) encodes is a reverse transcriptase (1), so-named because it transcribes a DNA copy from an RNA template. This activity can be quantitatively measured in a cell-free enzyme assay, which has been previously described (2), and is based upon the observation that reverse transcriptase is able to use a synthetic template [poly r(C) primed with oligo d(G)] to transcribe a radio-labelled, acid-precipitable DNA strand utilizing ^3 H-dGTP as a substrate. The assay described below utilizes the wild type (WT) enzyme, which is the predominant form of the enzyme observed in patients infected with HIV-1. Utilization of mutant RT enzymes (Y181C and Y181L, prepared by site-directed mutagenesis in which the tyrosine residue at codon 181 has been replaced by a cysteine or a leucine residue, respectively) and analogous assay conditions allows compounds to be evaluated for their effectiveness at inhibiting these mutant enzymes.
a) Preparation of the wild type enzyme Reverse transcriptase enzyme from the LAV strain of Human Immunodeficiency Virus (HIV-1) (1) was isolated from the bacterial strain JM109 (3) expressing the DNA clone pBRTprtl+ (2) which is under the control of the lac promotor in the expression vector pIBI21 (4). An overnight culture grown in 2XYT medium (37° C., 225 rpm) (5) supplemented with 100 μg/mL ampicillin for positive selection is inoculated at a 1:40 dilution into M9 medium supplemented with 10 μg/mL thiamine, 0.5% casamino acids, and 50 μg/mL ampicillin (5). The culture is incubated (37° C., 225 rpm) until it reaches an OD540 of 0.3-0.4. At that time the repressor inhibitor IPTG (isopropyl β-D-thiogalactopyranoside) is added to 0.5 mM, and the mixture is incubated for 2 additional hours. Bacteria are pelleted, resuspended in a 50 mM Tris, 0.6 mM EDTA, 0.375M NaCl buffer and digested by the addition of lysozyme (1 mg/mL) for 30 minutes on ice. The cells are lysed by the addition of 0.2% NP-40 and brought to 1M NaCl.
After removal of the insoluble debris by centrifugation, the protein is precipitated by the addition of 3 volumes of saturated aqueous ammonium sulfate. The enzyme is pelleted, resuspended in RT buffer (50 mM Tris pH 7.5, 1 mM EDTA, 5 mM DTT, 0.1% NP-40, 0.1M NaCl, and 50% glycerol), and stored at -70° C. for further use.
b) Composition of 2× concentrated stock reaction mixture
[poly r(C)/oligo d(G)] (5:1)
The 2× concentrated stock reaction mixture is aliquoted and stored at -20° C. The mixture is stable and thawed for use in each assay. This enzyme assay has been adapted to a 96 well microtiter plate system, and has been previously described (6). Tris buffer (50 mM, pH 7.4), vehicle (solvent diluted to match the compound dilution), or compounds in vehicle are dispensed into 96-well microtiter plates (10 μL/well; 3 wells/compound). The HIV-1 RT enzyme is thawed, diluted in 50 mM Tris pH 7.4 so that fifteen μL of diluted enzyme contain 0.001 Unit (one unit is that amount of enzyme to transform 1 micromole of substrate per minute at 25° C.), and fifteen μL are dispensed per well. Twenty μL of 0.12-0.5M EDTA are added to the first three wells of the microtiter plate. EDTA chelates the Mg^++ present and prevents reverse transcription. This group serves as background polymerization which is subtracted from all other groups. Twenty-five μl of the 2× reaction mixture are added to all wells and the assay is allowed to incubate at room temperature for 60 minutes. The assay is terminated by precipitating the DNA in each well with 50 μL of 10% trichloracetic acid (TCA) (10% w/v) in sodium pyrophosphate (1% w/v). […]
Take `CCC1c2ncccc2N(C)C(=O)c2ccc[n+]([O-])c21` (stereo not shown) [Example 1, 5,11-Dihydro-11-ethyl-5-methyl-10-oxo-6H-dipyrido[3,2-b:2',3'-e]azepin-6-on]: the inhibition at 1 µM came to 68%.

Compound `CCC1c2ncccc2C(=O)N(C)c2ccc(-c3cn[nH]c3)nc21` (stereo not shown) [Example 13, 5,11-Dihydro-11-ethyl-2-(4-pyrazolyl)-5-methyl-dipyrido[3,2-b:2',3'-e]azepine-6-one] registered an inhibition at 1 µM of 80%.

Turning to `CCC1c2nc(OC)ccc2N(C)C(=O)c2ccc[n+]([O-])c21` (stereo not shown) [Example 7, 5,11-Dihydro-11-ethyl-2-methoxy-5-methyl-10-oxodipyrido[3,2-b:2',3'-e]azepine-6-one], the inhibition at 1 µM turned out to be 75%.

For the compound `CCC1(CC)c2ncccc2C(=O)N(C)c2ccc(OC)nc21` [Example 9, 5,11-Dihydro-11-diethyl-2-methoxy-5-methyl-dipyrido[3,2-b:2',3'-e]azepine-6-one], 1 µM produced 66% inhibition.

`CCC1(C)c2ncccc2C(=O)N(C)c2cccnc21` (stereo not shown) [Example 4, 5,11-Dihydro-11-ethyl-11-methyl-5-methyldipyrido[3,2-b:2',3'-e]azepine-6-one] registered an inhibition at 1 µM of 68%.

In the case of `CCC1c2ncccc2C(=O)N(C)c2ccc(OC)nc21` (stereo not shown) [Example 8, 5,11-Dihydro-11-ethyl-2-methoxy-5-methyl-dipyrido[3,2-b:2',3'-e]azepine-6-one], the inhibition at 1 µM was 84%.

On to `CCC1c2ncccc2C(=O)N(C)c2cccnc21` (stereo not shown) [Example 2, 5,11-Dihydro-11-ethyl-5-methyldipyrido[3,2-b:2',3'-e]azepine-6-one], for which the inhibition at 1 µM turned out to be 62%.

As to `CCC1(CC)c2ncccc2C(=O)N(C)c2cccnc21` [Example 5, 5,11-Dihydro-11-diethyl-5-methyldipyrido[3,2-b:2',3'-e]azepine-6-one], 1 µM produced 62% inhibition.

`CCCC1c2ncccc2C(=O)N(C)c2cccnc21` (stereo not shown) [Example 3, 5,11-Dihydro-11-propyl-5-methyldipyrido[3,2-b:2',3'-e]azepine-6-one] came in with an inhibition at 1 µM of 64%.

Compound `COc1ccc2c(n1)C(C)(SC)c1ncccc1C(=O)N2C` (stereo not shown) [Example 12, 5,11-Dihydro-11-methyl-11-methylthio-2-methoxy-5-methyl-dipyrido[3,2-b:2',3'-e]azepine-6-one] had an inhibition at 1 µM of 41%.

As to `COc1ccc2c(n1)C(SC)c1c(ccc[n+]1[O-])C(=O)N2C` (stereo not shown) [Example 10, 5,11-Dihydro-11-methylthio-2-methoxy-5-methyl-10-oxodipyrido[3,2-b:2',3'-e]azepine-6-one], 1 µM produced 91% inhibition.

For the compound `CN1C(=O)c2cccnc2C2(CCCC2)c2ncccc21` [Example 6, 5,11-Dihydro-11-spirocyclopentyl-5-methyldipyrido[3,2-b:2',3'-e]azepine-6-one], the inhibition at 1 µM came out at 62%.

`COc1ccc2c(n1)C(SC)c1ncccc1C(=O)N2C` (stereo not shown) [Example 11, 5,11-Dihydro-11-methylthio-2-methoxy-5-methyl-dipyrido[3,2-b:2',3'-e]azepine-6-one] returned an inhibition at 1 µM of 80%.
